Measured values: patent publication US9988343B2, “Inhibitors of histone deacetylase” (Dana-Farber Cancer Institute, Inc., priority 2013, dated 2018)
Where two headings read alike, the source gives them in different places.

Tests used:
HDAC6 = target: T1, HDAC6 (Homo sapiens, UniProt Q9UBN7); assay: HDAC6 inhibitory activity (IC50); assay type: biochemical
T1 sequence (Q9UBN7 1-1215): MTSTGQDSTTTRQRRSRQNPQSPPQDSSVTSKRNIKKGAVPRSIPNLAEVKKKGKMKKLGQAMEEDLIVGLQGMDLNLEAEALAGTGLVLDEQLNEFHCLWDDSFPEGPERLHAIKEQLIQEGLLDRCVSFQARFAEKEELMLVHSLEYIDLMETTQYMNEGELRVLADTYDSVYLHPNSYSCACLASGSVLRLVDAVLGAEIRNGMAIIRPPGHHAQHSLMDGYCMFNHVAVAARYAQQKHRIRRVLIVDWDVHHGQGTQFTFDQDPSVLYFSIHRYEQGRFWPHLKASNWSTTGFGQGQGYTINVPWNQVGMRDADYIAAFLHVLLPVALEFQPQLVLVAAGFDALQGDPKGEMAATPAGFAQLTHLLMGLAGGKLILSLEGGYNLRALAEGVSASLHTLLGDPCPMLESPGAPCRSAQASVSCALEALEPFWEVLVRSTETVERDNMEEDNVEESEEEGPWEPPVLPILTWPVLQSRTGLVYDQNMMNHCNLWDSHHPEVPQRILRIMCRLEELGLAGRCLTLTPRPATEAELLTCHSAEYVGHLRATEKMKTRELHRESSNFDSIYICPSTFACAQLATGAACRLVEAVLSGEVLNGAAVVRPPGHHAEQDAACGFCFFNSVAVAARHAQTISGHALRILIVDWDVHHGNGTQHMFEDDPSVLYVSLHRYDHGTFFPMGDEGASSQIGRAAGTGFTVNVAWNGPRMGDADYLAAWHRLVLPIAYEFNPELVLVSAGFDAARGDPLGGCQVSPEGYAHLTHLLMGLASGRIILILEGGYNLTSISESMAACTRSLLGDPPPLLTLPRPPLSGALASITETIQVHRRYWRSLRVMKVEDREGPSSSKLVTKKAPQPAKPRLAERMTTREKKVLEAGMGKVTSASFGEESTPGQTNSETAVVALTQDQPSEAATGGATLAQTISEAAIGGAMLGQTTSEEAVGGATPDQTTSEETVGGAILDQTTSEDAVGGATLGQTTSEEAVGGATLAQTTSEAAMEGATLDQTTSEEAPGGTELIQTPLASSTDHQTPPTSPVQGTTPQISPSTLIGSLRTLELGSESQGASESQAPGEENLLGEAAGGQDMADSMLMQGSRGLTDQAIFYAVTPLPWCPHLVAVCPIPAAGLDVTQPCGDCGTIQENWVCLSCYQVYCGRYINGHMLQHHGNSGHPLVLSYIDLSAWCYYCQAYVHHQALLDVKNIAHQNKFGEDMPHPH
Method: HDAC inhibitor compounds designed and synthesized in accordance with the present invention were tested for their inhibitor activity against several different HDAC isoforms.

[1] = system: primary tumor cells from MM patients; assay: MTT growth assay in primary tumor cells from MM patients; assay type: cell-based, human; settings: 30 μM, 72 hours, MTT (FIG. 6B)
Method: (§1) BM specimens were obtained from patients with MM, and mononuclear cells (MNCs) were separated by Ficoll-Hipaque density sedimentation. Primary CD138+ plasma cells from MM patients were obtained using negative selection, as in previous studies. […] CD138-BMMNCs were used to establish long-term BMSC cultures, as previously described. […] Peripheral blood mononuclear cells were collected from healthy volunteers to obtain mononuclear cells (PBMCs). All procedures were performed with IRB-approved (Dana-Farber Cancer Institute) protocols and informed consent, and in accordance with the Declaration of Helsinki protocol. […] Cell growth was then assessed by MTT assay. Data represents mean±SD from triplicates cultures (FIG. 6B). […] Cell growth was assessed by MTT assay. The data represents mean±SD from triplicate cultures (FIG. 6C).

MM.1S cells [2] = assay: Immunoblot of caspase-3 and PARP cleavage; assay type: cell-based, human; settings: 15 μM (FIG. 6E)
PBMCs = assay: MTT growth assay in normal donor PBMCs; assay type: cell-based, human; settings: 7.5, 15, 30 μM, 72 hours, MTT (FIG. 6C)
Method: as §1

pSTAT3 (Tyr705) = assay: Immunoblot of STAT3 phosphorylation in MM cells; assay type: cell-based, human; settings: MM.1S, 10 and 20 μM, 10 hours, then IL-6 10 ng/mL 4 hours (FIG. 6G)
Method: MM cells were harvested and lysed using sodium dodecyl sulfate-polyacrylamide gel electrophoresis (SDS-PAGE) sample buffer containing 60 mM Tris-HCl, pH 6.8, 2% SDS, 10% glycerol, 0.005% bromophenol blue, 5 mM ethylenediaminetetraacetic acid, 5 mM NaF, 2 mM […], 1 mM phenylmethylsulfonyl fluoride (PMSF), 5 μg/mL leupeptin, and 5 μg/mL aprotinin; and then heated at 100° C. for 5 min. After the determination of protein concentration using DC protein assay (Bio-Rad, Hercules, Calif.), β-mercaptoethanol (β-ME) was added to the whole-cell lysates to a 2% final β-ME concentration. The whole-cell lysates were subjected to SDS-PAGE, transferred to nitrocellulose membranes (Bio-Rad, Hercules, Calif.) or polyvinylidene fluoride membranes (Millipore, Billerica, Mass.), and immunoblotted with anti-histone H3, -HDAC1, -HDAC2, -HDAC3, -Acetyl-histone H2A (Lysine 5) (Ac-H2AK5), -Acetyl-histone H2B (lysine 5) (Ac-H2 BK5), -Acetyl-histone H3 (lysine 9) (Ac-H3K9), -Acetyl-histone H4 (lysine 8) (Ac-H4K8), -glyceraldehyde-3-phosphate dehydrogenase (GAPDH), -poly (ADP-ribose) polymerase (PARP), -caspase-3, -caspase-8, -caspase-9, -Signal transducers and activators of transcription 3 (STAT3), -phospho-STAT3 (pSTAT3) (tyrosine 705), -pSTAT3 (serine 727), -p21, -Janus kinase 2 (JAK2), -acetylated-Lysine (Ac-K), and anti-phosphorylated-tyrosine antibodies (Abs; Cell Signaling Technology, Beverly, Mass.).
MM.1S, U266, and INA6 cells were cultured with DMSO control or LBH589 (50 and 100 nM) for 8 h.
MM.1S cells pretreated with or without 50 nM LBH589 for 8 hours were then treated with IL-6 (10 ng/mL) or BMSC culture supernatants (#1 and #2) for 15 minutes. Whole cell lysates were subjected to immunoblotting with anti-pSTAT3 (Tyr705) and STAT3 Abs.
In addition, INA-6 cells were cultured with DMSO control, LBH589 (50 nM), TSA (1 μM) or SAHA (2 μM) for 8 hours. Whole cell lysates were subjected to immunoblotting with anti-pSTAT3 (Tyr705), STAT3, and GAPDH Abs.
Whole cell lysates were subjected to immunoblotting with anti-pSTAT3 (Tyr705), -STAT3, -pERK1/2 (Thr202/204), and -ERK1/2 Abs (FIG. 6G).
See, e.g., Hideshima et al. Blood. 2006, 107:4053-4062. Since bortezomib upregulates activated STAT3 in head and neck squamous cell carcinoma (see, e.g., Li et al. Mol Cancer Ther 2009. 8:2211-2220), experiments were conducted to test whether bortezomib enhances p-STAT3 in MM cells. RPMI8226 cells were infected with Luc, HDAC1 (sh1), HDAC2 (sh1) or HDAC3 (sh1) shRNAs and then treated with or without bortezomib (5 nM) for 6 hours. Whole cell lysates were subjected to immunoblotting with anti-STAT3, -pSTAT3 (Tyr705), -pERK1/2 (Thr202/204) and -ERK1/2 Abs.

MM.1S cells [3] = assay: Immunoblot of histone and α-tubulin acetylation in MM.1S cells; assay type: cell-based, human; settings: 12 h, Compound 10 10 and 20 μM

Nc1ccccc1NC(=O)c1cnccn1 [Compound 10, N-(2-aminophenyl)pyrazine-2-carboxamide]
IC50 (HDAC6; Table 2, read-out: HDAC6): 79 µM | IC50 (HDAC6; Table 3, read-out: IC50 against the deacetylase activity of HDAC6): > 20 µM | growth of patient-derived MM cells [1]: potent growth inhibitory effect | caspase-3/PARP cleavage (apoptosis) (MM.1S cells [2]): induces caspase-dependent apoptosis | growth of normal donor PBMCs (PBMCs): without affecting normal donor PBMCs | p-STAT3 (pSTAT3 (Tyr705)): markedly downregulated p-STAT3 | histone acetylation (MM.1S cells [3]; LBH589 50 and 100 nM (FIG. 6F left)): significantly induced acetylation of histone H2A, H3, and H4 | α-tubulin acetylation (biomarker of HDAC6 inhibition) (MM.1S cells [3]; LBH589 50 and 100 nM (FIG. 6F right)): did not increase α-tubulin acetylation
